Like-named read-outs stand apart in the source and are kept apart here. Marks after values point to notes of the source that are not given here.
Key:
[1] = system: Human adenoid cystic carcinoma TGS112T cells; assay: PCNA western blot (thyroid hormone-induced proliferation); format: cell-based
Description: The techniques have been described in a number of publications. (See Davis et al., 2006. Cancer Res. 66:7270-7275; Lin et al., 2007. Steroids. 72:180-187; Lin et al., 2008. Carcinogenesis. 29:62-69; and Davis et al., 2004. Circ Res. 94:1500-1506, each of which is herein incorporated by reference in its entirety). Nucleoproteins were separated on discontinuous SDS-PAGE (9% gels) and the proteins transferred by electroblotting to nitrocellulose membranes (Millipore, Bedford, Mass.). After blocking with 5% milk in Tris-buffered saline containing 0.1% Tween, the membranes were incubated with selected primary antibodies overnight. The secondary antibodies were either goat anti-rabbit IgG (1:1000, Dako, Carpenteria, Calif.) or rabbit anti-mouse IgG (1:1000, Dako), depending upon the origin of the primary antibody. Immunoreactive proteins were then detected by chemiluminescence.
Human adenoid cystic carcinoma TGS112T cells were cultured in medium that contained 0.25% hormone-stripped serum for 2 d and then treated with 10^−7 M tetrac or nano-tetrac for 30 min prior institution of 10^−7 M T4 treatment for 24 h. Nuclear proteins were separated by SDS-PAGE followed by western blot analysis with proliferating-cell nuclear antigen (PCNA) antibody. Thyroid hormone-induced PCNA accumulation was inhibited by tetrac. (See FIG. 6A). […] (See FIG. 6A). Inhibition of thyroid hormone-induced proliferation was confirmed by inhibition by tetrac and nano-tetrac of thyroid hormone-induced accumulation and [^3H]-thymidine incorporation. (See FIG. 6B). […] (See FIG. 6B). […] The effect of nano-tetrac and tetrac on cell proliferation was examined by counting TGS112T cells which were treated daily with 10^−6 M tetrac or 10^−6 M nano-tetrac. […] (See FIG. 6C).

[2] = Turnover rate (stability) of tetrac in the culture system; format: physicochemical
Method: In LC/MS/MS experiments, medium samples (20 μL) were injected onto an HP 1100 series HPLC system (Agilent Technologies, Palo Alto, Calif., USA), equipped with a narrow-bore column Zorbax Eclipse XDB-C18 (5 μm, 150×2.1 mm; Agilent). Separation was performed using a mobile phase of 0.1% (v/v) acetic acid (A) and 100% acetonitrile (B), with a linear gradient of 20-60% B over 25 min. Flow rate was maintained at 0.2 mL min^−1 and elution was monitored by a diode array detector (200-600 nm). The LC effluent was then introduced into a turbo ion-spray source on a Q/STAR-XL quadruple/time-of-flight (TOF) hybrid mass spectrometer (Applied Biosystems, Foster City, Calif., USA). Negative ESI mass spectra were acquired over the range from m/z 100 to 400. The electrospray voltage was set at −4.5 kV and the source temperature was maintained at 475° C. […]
Human glioblastoma U87MG cells were treated with different concentrations of tetrac (10^−9-10^−5M) for 7 d and tetrac was replenished daily. The turnover rate of tetrac in the culture system was measured. Tetrac detected was 75% of the original concentration after 24 h incubation in medium with 10% FBS in the absence of cells at both room temperature and 37° C. […]

[3] = system: human breast cancer MDA-MB-231 cells (MDA-MB); assay: Anti-proliferation (total cell counts) in bellows cell culture system with pharmacodynamic modeling; format: cell-based; conditions: for IC50 / Imaxk (maximum effect on rate of growth) / ImaxR (maximum effect on success of replication): MDA-MB 231
Method: Each cell culture system is a compressible (bellows) 500 mL bottle which contains cell culture medium and specially-treated polymer flakes to which cells spontaneously attach and grow. Through moving bellows and porous membranes, the level of the medium in the bottle changes periodically. Consequently, the cells are alternately submerged in the culture medium, then exposed to 5% CO2/95% air which creates a dynamic interface between air and medium on the cell surface that maximizes nutrient uptake and oxygen transfer. The system provides a low shear, high aeration and foam-free culture environment. Proprietary treatment of the surfaces of the flakes enables seating and harvesting of cells and secreted proteins are readily isolated from the perfusate.
In a non-perfusion bellows cell culture system that was also used, the medium in each bottle was replaced by fresh medium every 24 h. In the perfusion bellows cell culture system, medium was progressively refreshed over 24 h, i.e., one complete change of medium occurred over 24 h.
In establishing the system, 5×10^7 cells were seeded in perfusion and non-perfusion bellows bottles and incubated overnight at 37° C. After that, flakes were harvested, trypsinized and cells were collected. Cell numbers were counted. […] For experiments, the perfusion bellows cell culture system was run for 2 d prior to starting experiments. […] Cell cultures were then exposed to 1% FBS-containing medium. Tetrac or nano-tetrac was added to the medium in the reservoir bottle to achieve the final concentrations reported for each experiment.
The time course of cell counts of the various cancer lines treated with different concentrations of tetrac or nano-tetrac was modeled by utilizing the pooled approach in NONMEM VI (version 6.2). All time points and treatment arms within each experiment were modeled simultaneously. A mechanism-based model (see Bulitta et al., 2009. Antimicrob. Agents Chemother. 53:46-56) was adapted to describe the proliferation of cancer cells and the inhibition of proliferation by tetrac. This model assumes two populations of cells in different phases of the cell cycle: cells that are preparing for replication (phase 1) and cells that are immediately “pre-replication” (phase 2). Cells transition from phase 1 to phase 2 by a first-order growth rate constant, while replication from phase 2 to phase 1 is assumed to be fast (see FIG. 2).
[formula] [formula] [formula] where C1 is the number of cells in phase 1, C2 the number of cells in phase 2, k21 the first order rate constant for replication (transition from phase 2 to phase 1), and k12 the first-order growth rate constant for transition from phase 1 to phase 2. The total number of cells Ct is the sum of C1 and C2. Rep is the replication efficiency factor which is described by:
[formula] where Cmax is the maximum number of cells. Without tetrac, the replication efficiency factor approaches 2, which reflects a 100% probability of successful replication. InhR describes the inhibitory effect of tetrac on the probability of successful replication:
[formula] Where ImaxR is the maximum effect of tetrac on probability of successful replication and IC50R is the tetrac concentration needed to achieve a half-maximal effect. Inhk describes the inhibitory effect of tetrac on the rate of growth:
[formula] Where Imaxk is the maximum effect of tetrac on rate of growth and IC50k is the tetrac concentration needed to achieve a half-maximal effect. Results

[4] = study 2, rich data from one single study over 19 days

For `O=C(O)Cc1cc(I)c(Oc2cc(I)c(O)c(I)c2)c(I)c1` [tetrac, Tetraiodothyroacetic acid], the “Thyroid hormone-induced PCNA accumulation” value ([1]; 10^−7 M tetrac, 10^−7 M T4, 24 h) was “inhibited”, the “Proliferation of TGS112T cells (agent alone)” value ([1]; 10^−7 M, 24 h) was “little effect alone” and the “Tetrac detected, % of the original concentration” value ([2]; 24 h incubation in medium with 10% FBS, absence of cells, room temperature and 37° C.) was 75%. The tetrac decay ([2]; incubated with cell cultures at 37° C.) was 12%, the IC50 ([3]; Homo sapiens, 456 h, study 2, rich data from one single study over 19 days, read-out: IC50R (effect on success of replication)) was 87 nM and the IC50 ([3]; Homo sapiens, 456 h, study 2, rich data from one single study over 19 days, read-out: IC50k (effect on rate of growth)) was 5100 nM. It also gave an inhibition at 0.1 µM ([3]; Homo sapiens, MDA-MB-231, 192 h, read-out: inhibitory effect on cell growth) of 38%, an IC50 ([3]; Homo sapiens, study 1, sparse sampling, data pooled from two studies, read-out: IC50R (effect on success of replication)) of 4400 nM and an IC50 ([3]; Homo sapiens, study 1, sparse sampling, data pooled from two studies, read-out: IC50k (effect on rate of growth)) of 7.6 nM. The “Imaxk (maximum effect on rate of growth)” value ([3]; study 1, sparse sampling, data pooled from two studies) was 0.19, the “ImaxR (maximum effect on success of replication)” value ([3]; study 1, Imax at time = 0, decreases with time) was 0.53^a and the “ImaxR (maximum effect on success of replication)” value [3, 4] was 0.20. For the same molecule, the “Imaxk (maximum effect on rate of growth)” value [3, 4] was 0.85.
